Measured values from USRE35593E (priority 1989, dated 1997).
Counter-ions that a name gives are not always drawn. Like-named read-outs stand apart in the source and are kept apart here.

Legend:
muscarinic receptors [1] = format: binding, Hooded Lister rats; details: 0.27 nM 3H-QNB; rat cerebral cortex; 37° C., 30 min; pH 7.7; non-specific: 1 μM Atropine sulphate
muscarinic receptors [2] = experiment: Radio ligand binding: displacement of muscarinic agonist 3H-OXO-M (3H-Oxotremorine-M), rat cerebral cortex membranes; set-up: species or system Hooded Lister rats; details: 2 nM 3H-OXO-M, 2 mM magnesium chloride, 37° C., 30 min, pH 7.7, non-specific: 10 μM Oxotremorine

Compound | IC50 (muscarinic receptors [1]) | IC50 (muscarinic receptors [2])
CON=C(OC)C1CN2CCC1CC2 (racemic) [Example E2, (±) 1-Azabicyclo2.2.2]oct-3-yl-N-methoxycarboximidic acid methyl ester oxidate salt] | 8000 nM | 1000 nM
CON=C(Cl)[C@@H]1CN2CC[C@H]1C2 (relative stereo) [Example E16, (±) endo-1-Azabicyclo[2.2.1]hept-3-yl -N-methoxycarboximidoyl chloride oxalate salt] | 7000 nM | 99 nM
CON=C(Br)C12CCN(CC1)C2 [Example E13, 1-Azabicyclo[2.2.1]hept-4-yl-N-methoxycarboximidoyl bromide oxalate salt] | 10000 nM | 170 nM
CCON=C(Cl)[C@H]1CN2CC[C@H]1C2 (relative stereo) [Example E21, (±) exo-1-Azabicyclo[2.2.1]hept-3-yl-N-ethoxy carboximidoyl chloride oxalate salt] | 15500 nM | 570 nM
CON=C(C1CC1)C1CN2CCC1CC2 (racemic) [Example E15, (±) 1-Azabicyclo[2.2.2]oct-3-yl cyclopropyl ketone trans-O-methyloxime hydrochloride salt] | 22200 nM | 386 nM
CON=C(F)[C@H]1CN2CC[C@H]1C2 (relative stereo) [Example E20, (±) exo-1-Azabicyclo[2.2.1]hept-3-yl-N-methoxy carboximidoyl fluoride oxalate salt] | 3000 nM | 11 nM
CON=C(C#N)C12CCN(CC1)C2 [Example E12, α-(Methoxyimino)-α-(1-azabicyclo[2.2.1]hept-4-syl)acetonitrilehydrochloride salt] | 2000 nM | 21 nM
CCON=C(C#N)[C@H]1CN2CC[C@H]1C2 (relative stereo) [Example E22, (±) exo-α-(Ethoxyimino)-α-(1-azabicyclo[2.2. 1]hept-3-yl)acetonitrile oxalate salt] | 10000 nM | 233 nM
CON=C(C#N)[C@H]1CN2CC[C@H]1C2 (relative stereo) [Example E9, (±) exo-α-(Methoxyimino)-α-(1-azabicyclo[2.2.1]hept-3-yl)acetonitrile hydrochloride salt] | 2100 nM | 25 nM
CON=C(Cl)C12CCCN(CC1)C2 (racemic) [Example E5, (±) 1-Azabicyclo[3.2.1]oct-5-yl-N-methoxycarboximidoyl chloride oxalate salt] | 3820 nM | 72 nM
CON=C(Cl)[C@H]1CN2CC[C@H]1C2 (relative stereo) [Example E8, (±) exo-1-Azabicyclo[2.2.1]hept-3-yl-N-methoxycarboximidoyl chloride oxalate salt] | 3330 nM | 64 nM
C#CCON=C(Cl)[C@H]1CN2CC[C@H]1C2 (relative stereo) [Example E24, (±) exo- and endo-1-Azabicyclo[2.2.1]hept-3-yl-N-prop-2-ynyloxycarboximidoyl chloride oxalate salts] | 2100 nM | 112 nM
CON=C(Br)[C@H]1CN2CC[C@H]1C2 (relative stereo) [Example E18, (±) exo- and endo-1-Azabicyclo[2.2.1]hept-3-yl-N-methoxycarboximidoyl bromide oxalate salts] | 11000 nM | 46 nM
CON=C(Cl)C1CN2CCC1CC2 (racemic) [Example E1, (±) 1-Azabicyclo[2.2.2]oct-3-yl-N-methoxycarboximidoyl chloride oxalate salt] | 897 nM | 93 nM
CON=C(C#N)[C@@H]1CN2CC[C@H]1C2 (relative stereo) [Example E17, (±) endo-α-(Methoxyimino)-α-(1-azabicyclo[2.2.1]hept-3-yl)acetonitrile oxalate salt] | 3600 nM | 16 nM
CON=C(CC#N)[C@H]1CN2CC[C@H]1C2 (relative stereo) [Example E27, (±) exo- and endo-3-Oxo-3-(1-azabicyclo[2.2.1]hept-3-yl)propionitrile-O-methyl oxime oxalate salts] | 1100 nM | 71 nM
CON=C(F)C1CN2CCC1CC2 (racemic) [Example E10, (±) 1-Azabicyclo[2.2.2]oct-3-yl-N-methoxycarboximidoyl fluoride oxalate salt] | 2110 nM | 34 nM
CON=C(Br)C12CCCN(CC1)C2 (racemic) [Example E7, (±) 1-Azabicyclo[3.2. ]oct-5-yl-N-methoxycarboximidonyl bromide oxalate salt] | 2850 nM | 190 nM
CON=C(Cl)C12CCN(CC1)C2 [Example E11, 1-Azabicyclo[2.2.1]hept-4-yl-N-methoxycarboximidoyl chloride oxalate salt] | 9000 nM | 38 nM
C#CC(=NOC)C12CCCN(CC1)C2 (racemic) [Example E4, (±) 1-Azabicyclo[3.2.1]oct-5-yl ethynyl ketone O-methyloxime oxalate salt] | 1460 nM | 162 nM
CON=C(C#N)C12CCCN(CC1)C2 (racemic) [Example E6, (±) α-(Methoxyimino)-α-(1-azabicyclo[3.2.1]oct-5-yl) acetonitrile hydrochloride salt] | 251 nM | 114 nM
CON=C(CC#N)[C@@H]1CN2CC[C@H]1C2 (relative stereo) [Example E28, (±) exo- and endo-3-Oxo-3-(1-azabicyclo[2.2.1]hept-3-yl)propionitrile-O-methyl oxime oxalate salts] | 16500 nM | 750 nM
CON=C(F)C12CCN(CC1)C2 [Example E14, 1-Azabicyclo[2.2.1]hept-4-yl-N-methoxycarboximidoyl fluoride oxalate salt] | 15500 nM | 48 nM
CON=C(Br)[C@@H]1CN2CC[C@H]1C2 (relative stereo) [Example E19, (±) exo- and endo-1-Azabicyclo[2.2.1]hept-3-yl-N-methoxycarboximidoyl bromide oxalate salts] | 3600 nM | 127 nM
